Measurements published in ChEMBL document CHEMBL1133061, “Synthesis of N-diisopropyl phosphoryl benzyltetrahydroisoquinoline, a new class of mitochondrial complexes I and III inhibitors” (Bioorg Med Chem Lett, 2000).

Target: Mitochondrial complex I; NADH oxidoreductase (Bos taurus, UniProt P25708+P52505)
Experiment: Inhibitory concentration against NADH oxidase
Assay type: protein-complex assay

Sequence of Mitochondrial complex I; NADH oxidoreductase (P25708 21-464 limits assumed, other chains not shown): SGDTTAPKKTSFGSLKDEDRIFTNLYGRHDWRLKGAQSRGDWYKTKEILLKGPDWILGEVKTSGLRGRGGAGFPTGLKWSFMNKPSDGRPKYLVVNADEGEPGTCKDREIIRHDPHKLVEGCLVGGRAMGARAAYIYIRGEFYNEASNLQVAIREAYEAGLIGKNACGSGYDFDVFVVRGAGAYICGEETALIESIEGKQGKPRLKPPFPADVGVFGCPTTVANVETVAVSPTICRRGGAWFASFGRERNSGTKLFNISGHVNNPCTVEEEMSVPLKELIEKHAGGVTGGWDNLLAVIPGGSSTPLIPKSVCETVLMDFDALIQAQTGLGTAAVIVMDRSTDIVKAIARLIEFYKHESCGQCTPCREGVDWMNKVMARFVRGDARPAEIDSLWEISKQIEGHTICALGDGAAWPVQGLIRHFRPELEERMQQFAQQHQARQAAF

SMILES | IC50 [nM]
COc1cc2c(cc1OCc1ccccc1)CCN(C)C2Cc1ccccc1 (centres undefined) | 2700
COc1cc2c(cc1OCc1ccccc1)CCN(P(=O)(OC(C)C)OC(C)C)C2Cc1ccccc1 (centres undefined) | 1690
COc1cc2c(cc1OCc1ccccc1)CCN=C2Cc1ccccc1 | 2910
COc1cc2c(cc1OCc1ccccc1)CCNC2Cc1ccccc1 (centres undefined) | 3880
